Results reported in ChEMBL document CHEMBL1137226, “Structure modifications of 6-aminoquinolones with potent anti-HIV activity” (J Med Chem, 2004).
In brackets after ≈: the same amount, converted by molar mass.

Tests used:
MT4 [1] = assay: Maximum protection (%) of MT-4 cells from HIV-1 (IIIB) induced cytopathogenicity; value ranges from 8-9%; type: functional, Homo sapiens
MT4 [2] = assay: Concentration required for protection of MT-4 cells from HIV-1 (IIIB) induced cytopathogenicity in MTT assay; type: functional, cell-based; details: Homo sapiens
MT4 [3] = assay: Maximum protection (%) of MT-4 cells from HIV-2 (ROD) induced cytopathogenicity; type: functional, Homo sapiens
MT4 [4] = assay: Concentration of compound that reduces the viability of mock-infected MT-4 cells by 50%; type: functional; details: Homo sapiens
MT4 [5] = assay: Concentration required for protection of MT-4 cells from HIV-2 (ROD) induced cytopathogenicity in MTT assay; type: functional, cell-based; details: Homo sapiens
MT4 [6] = assay: Selectivity index towards HIV-2 (ROD) in MT-4 cells; type: functional, Homo sapiens
MT4 [7] = assay: Selectivity index towards HIV-1 (IIIB) in MT-4 cells; type: functional, Homo sapiens
MT4 [8] = assay: Maximum protection (%) of MT-4 cells from HIV-1 (IIIB) induced cytopathogenicity; value ranges from 3-8%; type: functional, Homo sapiens
MT4 [9] = assay: Maximum protection (%) of MT-4 cells from HIV-2 (ROD) induced cytopathogenicity; value ranges from 40-42%; type: functional, Homo sapiens
MT4 [10] = assay: Maximum protection (%) of MT-4 cells from HIV-1 (IIIB) induced cytopathogenicity; value ranges from 29-37%; type: functional, Homo sapiens
MT4 [11] = assay: Maximum protection (%) of MT-4 cells from HIV-1 (IIIB) induced cytopathogenicity; value ranges from 32-39%; type: functional, Homo sapiens
MT4 [12] = assay: Maximum protection (%) of MT-4 cells from HIV-2 (ROD) induced cytopathogenicity; value ranges from 27-33%; type: functional, Homo sapiens
MT4 [13] = assay: Maximum protection (%) of MT-4 cells from HIV-1 (IIIB) induced cytopathogenicity; value ranges from 2-14%; type: functional, Homo sapiens
MT4 [14] = assay: Maximum protection (%) of MT-4 cells from HIV-1 (IIIB) induced cytopathogenicity; value ranges from 4-13%; type: functional, Homo sapiens
MT4 [15] = assay: Maximum protection (%) of MT-4 cells from HIV-1 (IIIB) induced cytopathogenicity; value ranges from 14-20%; type: functional, Homo sapiens
MT4 [16] = assay: Maximum protection (%) of MT-4 cells from HIV-1 (IIIB) induced cytopathogenicity; value ranges from 16-49%; type: functional, Homo sapiens
MT4 [17] = assay: Maximum protection (%) of MT-4 cells from HIV-2 (ROD) induced cytopathogenicity; value ranges from 21-26%; type: functional, Homo sapiens
MT4 [18] = assay: Maximum protection (%) of MT-4 cells from HIV-1 (IIIB) induced cytopathogenicity; value ranges from 5-6%; type: functional, Homo sapiens
MT4 [19] = assay: Maximum protection (%) of MT-4 cells from HIV-1 (IIIB) induced cytopathogenicity; value ranges from 53-59%; type: functional, Homo sapiens
CCRF-CEM [20] = assay: Concentration of compound required for protection of CEM cells from HIV-1 (IIIB) induced cytopathogenicity; type: functional, cell-based; details: Homo sapiens
CCRF-CEM [21] = assay: Concentration of compound that reduces the viability of mock-infected CEM cells by 50%; type: functional; details: Homo sapiens
[22] = Selectivity index towards HIV-1 (IIIB) in peripheral blood mononuclear cells; type: functional, Homo sapiens
[23] = Concentration of compound required for reduction of p24 production in HIV-1 (IIIB) infected peripheral blood mononuclear cells; type: functional; details: Homo sapiens
[24] = Concentration of compound that reduces the viability of mock-infected peripheral blood mononuclear cells by 50%; type: functional; details: Homo sapiens
CCRF-CEM [25] = assay: Concentration of compound required for protection of CEM cells from HIV-2 (ROD) induced cytopathogenicity; type: functional, cell-based; details: Homo sapiens
CCRF-CEM [26] = assay: Selectivity index towards HIV-2 (ROD) in CEM cells; type: functional, Homo sapiens
CCRF-CEM [27] = assay: Selectivity index towards HIV-1 (IIIB) in CEM cells; type: functional, Homo sapiens
MT4 [28] = assay: Maximum protection (%) of MT-4 cells from HIV-2 (ROD) induced cytopathogenicity; value ranges from 40-43%; type: functional, Homo sapiens

Compound	EC50 (MT4 [2]) [µg/mL]	Protection (MT4 [3]) [%]	CC50 (MT4 [4]) [µg/mL]	EC50 (MT4 [5]) [µg/mL]	Selectivity index (MT4 [6])	Selectivity index (MT4 [7])	also measured
COc1ccccc1N1CCN(c2ccc3c(=O)c(C(=O)O)cn(C)c3c2)CC1	> 125	6	> 125	> 125	–	–	Protection (MT4 [1]): <9%
Cn1cc(C(=O)O)c(=O)c2cc([N+](=O)[O-])c(N3CCN(c4ccccn4)CC3)c(F)c21	> 29.6	4	29.6 (≈ 69.2 µM)	> 29.6	<1	<1	Protection (MT4 [8]): <8%
Cn1cc(C(=O)O)c(=O)c2cc(N)c(N3CCN(c4ccccn4)CC3)c(F)c21	> 6.08	–	6.08 (≈ 15.3 µM)	> 6.08	<1	<1	Protection (MT4 [9]): <42%; Protection (MT4 [10]): <37%
Cn1cc(C(=O)O)c(=O)c2cnc(N3CCN(c4ccccn4)CC3)cc21	> 67.4	–	67.4 (≈ 184 µM)	> 67.4	<1	<1	Protection (MT4 [11]): <39%; Protection (MT4 [12]): <33%
Nc1cc2c(=O)c(C(=O)O)cn(C3CCN(Cc4ccccc4)CC3)c2cc1N1CCN(c2ccccn2)CC1	> 2.36	5	2.36 (≈ 4.38 µM)	> 2.36	<1	<1	Protection (MT4 [13]): <14%
Cn1cc(C(=O)O)c(=O)c2cc([N+](=O)[O-])c(N3CCN(c4ccccn4)CC3)cc21	> 10.1	5	10.1 (≈ 24.6 µM)	> 10.1	<1	<1	Protection (MT4 [14]): <13%
Nc1cc2c(=O)c(C(=O)O)cn(-c3nc4ccccc4s3)c2cc1N1CCN(c2ccccn2)CC1	> 9.13	21	9.13 (≈ 18.3 µM)	> 9.13	<1	<1	Protection (MT4 [15]): <20%
COc1c(N2CCN(c3ccccn3)CC2)c(N)cc2c(=O)c(C(=O)O)cn(C)c12	> 4.28	–	4.28 (≈ 10.5 µM)	> 4.28	<1	<1	Protection (MT4 [16]): <49%; Protection (MT4 [17]): <26%
Nc1cc2c(=O)c(C(=O)O)cn(-c3ccc(-c4ccccc4)cc3)c2cc1N1CCN(c2nc3ccccc3s2)CC1	> 0.67	1	0.67 (≈ 1.17 µM)	> 0.67	<1	<1	Protection (MT4 [18]): <6%
Cn1cc(C(=O)O)c(=O)c2ccc(N3CCN(c4ccccn4)CC3)cc21	19.2 (≈ 52.7 µM)	–	65.5 (≈ 180 µM)	> 65.5	<1	3.4	Protection (MT4 [19]): <59%; EC50 (CCRF-CEM [20]): 1.2 µg/mL (≈ 3.29 µM); CC50 (CCRF-CEM [21]): > 100 µg/mL; Selectivity index [22]: >73; EC50 [23]: 1.37 µg/mL (≈ 3.76 µM); CC50 [24]: > 100 µg/mL; EC50 (CCRF-CEM [25]): 1.8 µg/mL (≈ 4.94 µM); Selectivity index (CCRF-CEM [26]): >56; Selectivity index (CCRF-CEM [27]): >83; Protection (MT4 [28]): <43%
